Tests used:
[1] = intraduodenal, rats, with 1% (w/v) saline dispersion of polycarbophil; cited from earlier work
[2] = tested on: facial skin; experiment: Corneocyte surface area (senile xerosis) after facial patch or mask treatment; assay type: in vivo; conditions: patch or mask containing 0.3% CoQ10, once or twice daily for 7 days, vs delivery vehicle or carrier alone
Text: Although the stratum corneum, the outermost layer of the epidermis, is continuously sloughed off and replaced in healthy individuals, it will display symptoms of aging in the underlying living cells in older subjects. The area of corneocytes, which make up the stratum corneum, is proportional to the time taken for the keratinocyte to differentiate and move from the basal layer to the stratum corneum. In aged skin, the time taken to move through the epidermis increases, and corneocytes become larger. The surface can develop fine lines and become dry and scaly (senile xerosis). As aging progresses, the surface area of corneocytes increases, and thus this value can be measured to determine the effectiveness of an anti-aging treatment (i.e., to decrease the transit time and corneocyte surface area).

[3] = tested on: human skin; experiment: Ultra weak photon emission (UPE) assay of skin after UVA irradiation; assay type: in vivo; conditions: orbital patch with 0.3% CoQ10 once or twice daily for 7 days, 50 mJ/cm^2 UVA, vs delivery vehicle alone
Text: Oxidative events in human skin in vivo following delivery of CoQ10 via a facial patch or mask of the invention are detected, for example, by means of ultra weak photon emission assay [Sauermann et al., Oxidants & Antioxidants, Methods in Enzymology, L. Packer, ed., Academic Press, 300: 419-428 (1999), incorporated herein by reference]. In the basal state, cells emit low levels of photons. When UVA irradiation is applied there is an excited state with a large increase in the level of photons that decay with time. The level of photons emitted is an indication of the antioxidant status of the skin. If there is an increase in antioxidants, the excitation is less and the level of photons emitted will be reduced. The ultra weak photon emission (UPE) is measured after UVA irradiation in two age groups: (1) aged 18-25 years, (2) aged 60-72 years.

[4] = tested on: peri-orbital skin; experiment: Quantitative microtopography of skin casts, depth of deep wrinkles (photoaging); assay type: in vivo, human
Method: A significant adverse symptom of photoaging is the presence of deep wrinkles. […] In one exemplary protocol, an orbital patch containing CoQ10 in a delivery vehicle or carrier as described above is applied to one eye of a subject, and a control orbital patch containing a delivery vehicle alone is applied around the other eye. Casts are then prepared for quantitative microtopography [see, e.g., Hoppe, et al., J. Soc. Cosmetic Chemists 36: 105-123 (1985), incorporated herein by reference]. Photographs of the skin before treatment show deep wrinkles, which are characteristic of photoaging, whereas fine wrinkles are associated with chronological aging. Using microtopography to measure a reduction in the depth of wrinkles in aged skin, two important parameters can be calculated from the microtopography. They are: Rt which is the mean peak to valley measurement of a defined unit distance, and Rq which is the integrated area of the peaks and troughs. These measurements indicate the variation of the microtopography from a flat surface. […] In certain examples, treatment with an orbital patch containing 0.3% CoQ10 will results in at least a 25% reduction in the mean peak to valley depth of the skin and at least a 25% reduction in the Rq value, compared to controls.

[5] = orbital patch containing 0.3% CoQ10, compared to controls

| Compound | increase in bioavailability compared to aqueous solution without polymer [1] | corneocyte area over time [2] | levels of UPE compared to control level [3] | reduction in the Rq value [4, 5] | reduction in the mean peak to valley depth of the skin (Rt) [4, 5] | depth of deep wrinkles ([4]; patch containing 0.3% CoQ10 once daily, at least 2 hours each day, one week to six months, vs vehicle control) |
| --- | --- | --- | --- | --- | --- | --- |
| 9-desglycinamide, 8-arginine vasopressin [DGAVP] | 3-5 fold | – | – | – | – | – |
| COC1=C(OC)C(=O)C(C/C=C(\C)CC/C=C(\C)CC/C=C(\C)CC/C=C(\C)CC/C=C(\C)CC/C=C(\C)CC/C=C(\C)CC/C=C(\C)CC/C=C(\C)CCC=C(C)C)=C(C)C1=O [CoQ10, CoEnzyme Q10] | – | significant decrease | significantly lower levels | ≥ 25% | ≥ 25% | significantly reduced |

— patent US20030167556A1, “Methods and devices for transdermal delivery of anti-aging compounds for treatment and prevention of facial or neck skin aging” (Consumers Choice Systems, Inc., priority 2002, published 2003)
